Test results as given in patent US20220054469A1, “FARNESOID X RECEPTOR AGONISTS AND USES THEREOF” (Metacrine, Inc., priority 2018, published 2022).

These compounds were tested against T1, hFXR (Homo sapiens, UniProt Q96RI1) (assay: In Vitro FXR Assay (TK)). Settings: CV-1 cells transfected with hFXR, hRXR, TK-ECRE-luc and pCMX-YFP; incubated with compound for 18 hrs; luminescence.
T1 construct: expressed in transfected cells; host or cells: CV-1 cells
T1 sequence (Q96RI1 1-486): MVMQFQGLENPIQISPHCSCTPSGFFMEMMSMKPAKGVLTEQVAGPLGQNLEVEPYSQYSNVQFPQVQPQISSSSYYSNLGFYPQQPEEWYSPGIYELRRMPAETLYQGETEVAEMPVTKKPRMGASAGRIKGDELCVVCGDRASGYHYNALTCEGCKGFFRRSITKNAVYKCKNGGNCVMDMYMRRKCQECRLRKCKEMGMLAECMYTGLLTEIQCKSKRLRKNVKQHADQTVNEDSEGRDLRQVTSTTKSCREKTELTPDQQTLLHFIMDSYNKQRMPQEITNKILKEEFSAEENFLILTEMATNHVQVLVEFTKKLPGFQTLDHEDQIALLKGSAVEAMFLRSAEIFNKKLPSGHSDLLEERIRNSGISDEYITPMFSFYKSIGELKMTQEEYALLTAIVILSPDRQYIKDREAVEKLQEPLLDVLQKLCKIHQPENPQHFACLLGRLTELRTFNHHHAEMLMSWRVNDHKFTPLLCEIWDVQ
T1 sequence (P19793 1-462 partner): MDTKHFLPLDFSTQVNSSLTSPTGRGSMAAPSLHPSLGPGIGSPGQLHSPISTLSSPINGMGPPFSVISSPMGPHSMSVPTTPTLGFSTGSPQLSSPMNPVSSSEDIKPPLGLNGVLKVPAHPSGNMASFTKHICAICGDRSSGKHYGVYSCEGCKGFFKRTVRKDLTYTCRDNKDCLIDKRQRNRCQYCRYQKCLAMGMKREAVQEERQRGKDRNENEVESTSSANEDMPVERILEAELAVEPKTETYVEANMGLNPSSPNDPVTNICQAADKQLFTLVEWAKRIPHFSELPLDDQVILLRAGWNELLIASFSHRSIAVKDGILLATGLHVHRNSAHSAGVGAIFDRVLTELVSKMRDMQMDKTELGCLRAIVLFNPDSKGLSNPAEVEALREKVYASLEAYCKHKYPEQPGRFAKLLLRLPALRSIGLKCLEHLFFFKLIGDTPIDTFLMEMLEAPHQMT
Assay type: cell-based
Experimental: Example B-1: In Vitro FXR Assay (TK)
CV-1 cells were seeded at a density of 2,000,000 cells in a T175 flask with DMEM+10% charcoal double-stripped FBS and incubated at 37° C. in 5% CO2 for 18 h (O/N).
After 18 h of incubation, the medium in the T175 flask was changed with fresh DMEM+10% charcoal super-stripped serum. In a polypropylene tube, 2500 μL OptiMEM (Life Technologies, Cat #31985-062) was combined with expression plasmids for hFXR, hRXR, TK-ECRE-luc and pCMX-YFP. The tube was then briefly vortexed and incubated at room temperature for 5 minutes. Transfection reagent (X-tremeGENE HP from Roche, Cat #06 366 236 001) was added to the OptiMEM/plasmid mixture vortexed and incubated at room temperature for 20 minutes. Following incubation, the transfection reagent/DNA mixture complex was added to cells in the T175 flask and the cells were incubated at 37° C. in 5% CO2 for 18 h (O/N).
Compounds were serially diluted in DMSO and added to transfected CV-1 cells. The cells were then incubated for 18 hrs. The next day cells were lysed and examined for luminescence.

| SMILES | EC50 |
| --- | --- |
| COc1ccc(C23CCC(CN(c4cccc(-c5cnn(C(C)(C)C)c5)c4)C(=O)[C@H]4CC[C@H](C(=O)O)CC4)(CC2)CC3)cc1C [Compound 2.03, trans-4-((3-(1-(tert-Butyl)-1H-pyrazol-4-yl)phenyl)((4-(4-methoxy-3-methylphenyl)bicyclo[2.2.2]octan-1-yl)methyl)carbamoyl)cyclohexanecarboxylic acid] | ≤ 50 nM |
| COc1ccc(C23CCC(CN(c4cccc(-c5cnn(C(C)C)c5)c4)C(=O)[C@H]4CC[C@H](CC(=O)O)CC4)(CC2)CC3)cc1C [Compound 3.02, trans-2-(4-((3-(1-Isopropyl-1H-pyrazol-4-yl)phenyl)((4-(4-methoxy-3-methylphenyl)bicyclo[2.2.2]octan-1-yl)methyl)carbamoyl)cyclohexyl)acetic acid] | ≤ 50 nM |
| COc1ccc(C23CCC(CN(c4cc(-c5cnn(C(C)C)c5)ccn4)C(=O)[C@H]4CC[C@H](CCC(=O)O)CC4)(CC2)CC3)cc1C [Compound 1, trans-3-(4-((4-(1-Isopropyl-1H-pyrazol-4-yl)pyridin-2-yl)((4-(4-methoxy-3-methylphenyl)bicyclo[2.2.2]octan-1-yl)methyl)carbamoyl)cyclohexyl)propanoic acid] | ≤ 50 nM |
| COc1ccc(C23CCC(CN(c4cccc(-c5cnn(C(C)(C)C)c5)c4)C(=O)[C@H]4CC[C@H](CC(=O)O)CC4)(CC2)CC3)cc1C [Compound 2.06, trans-2-(4-((3-(1-(tert-Butyl)-1H-pyrazol-4-yl)phenyl)((4-(4-methoxy-3-methylphenyl)bicyclo[2.2.2]octan-1-yl)methyl)carbamoyl)cyclohexyl)acetic acid] | ≤ 50 nM |
| COc1ccc([C@H]2CC[C@H](CN(c3cccc(-c4cnn(C(C)C)c4)c3)C(=O)[C@H]3CC[C@H](C(=O)O)CC3)CC2)cc1C [Compound 2.01, trans-4-((3-(1-Isopropyl-1H-pyrazol-4-yl)phenyl)((trans-4-(4-methoxy-3-methylphenyl)cyclohexyl)methyl)carbamoyl) cyclohexanecarboxylic acid] | ≤ 50 nM |
| COc1ccc(C23CCC(CN(c4cncc(-c5cnn(C(C)C)c5)c4)C(=O)[C@H]4CC[C@H](CC(=O)O)CC4)(CC2)CC3)cc1C (relative stereo) [Compound 2.11, trans-2-(4-((5-(1-Isopropyl-1H-pyrazol-4-yl)pyridin-3-yl)((4-(4-methoxy-3-methylphenyl)bicyclo[2.2.2]octan-1-yl)methyl)carbamoyl)cyclohexyl)acetic acid] | 50 to 1000 nM |
| COc1ccc(C23CCC(CN(C(=O)[C@@H]4CCC[C@H](CC(=O)O)C4)c4cc(-c5cnn(C(C)C)c5)ccn4)(CC2)CC3)cc1C (relative stereo) [Compound 5, cis-2-(3-((4-(1-isopropyl-1H-pyrazol-4-yl)pyridin-2-yl)((4-(4-methoxy-3-methylphenyl)bicyclo[2.2.2]octan-1-yl)methyl)carbamoyl)cyclohexyl)acetic acid] | ≤ 50 nM |
| COc1ccc([C@H]2CC[C@H](CN(c3cccc(-c4cnn(C(C)(C)C)c4)c3)C(=O)[C@H]3CC[C@H](C(=O)O)CC3)CC2)cc1C [Compound 2.02, trans-4-((3-(1-(tert-Butyl)-1H-pyrazol-4-yl)phenyl)((trans-4-(4-methoxy-3-methylphenyl)cyclohexyl)methyl)carbamoyl) cyclohexanecarboxylic acid] | 50 to 1000 nM |
| COc1ccc(C23CCC(CN(c4cc(-c5cnn(C(C)(C)C)c5)ccn4)C(=O)[C@H]4CC[C@H](CCC(=O)O)CC4)(CC2)CC3)cc1C [Compound 3.04, trans-3-(4-((4-(1-(tert-Butyl)-1H-pyrazol-4-yl)pyridin-2-yl)((4-(4-methoxy-3-methylphenyl)bicyclo[2.2.2]octan-1-yl)methyl)carbamoyl)cyclohexyl)propanoic acid] | ≤ 50 nM |
| COc1ccc(C23CCC(CN(c4ccc(F)c(-c5cnn(C(C)C)c5)c4)C(=O)[C@H]4CC[C@H](CC(=O)O)CC4)(CC2)CC3)cc1C [Compound 2.09, trans-2-(4-((4-Fluoro-3-(1-isopropyl-1H-pyrazol-4-yl)phenyl)((4-(4-methoxy-3-methylphenyl)bicyclo[2.2.2]octan-1-yl)methyl)carbamoyl)cyclohexyl)acetic acid] | ≤ 50 nM |
| COc1ccc([C@H]2CC[C@H](CN(c3cc(-c4cnc(C(C)C)s4)ccn3)C(=O)[C@H]3CC[C@H](CC(=O)O)CC3)CC2)cc1C [Compound 2.12, 2-(trans-4-((4-(2-Isopropylthiazol-5-yl)pyridin-2-yl)((trans-4-(4-methoxy-3-methylphenyl)cyclohexyl)methyl)carbamoyl)cyclohexyl)acetic acid] | ≤ 50 nM |
| COc1ccc(C23CCC(CN(C(=O)[C@@H]4CCC[C@@H](C(=O)O)C4)c4cc(-c5cnn(C(C)C)c5)ccn4)(CC2)CC3)cc1C (relative stereo) [Compound 3.06, trans-3-((4-(1-Isopropyl-1H-pyrazol-4-yl)pyridin-2-yl)((4-(4-methoxy-3-methylphenyl)bicyclo[2.2.2]octan-1-yl)methyl)carbamoyl)cyclohexanecarboxylic acid] | 50 to 1000 nM |

Second part, the compound after the results:

| EC50 | SMILES |
| --- | --- |
| 50 to 1000 nM | COc1ccc(C23CCC(CN(c4ccnc(-c5cnn(C(C)C)c5)c4)C(=O)[C@H]4CC[C@H](CC(=O)O)CC4)(CC2)CC3)cc1C (relative stereo) [Compound 4.05, trans-2-(4-((2-(1-Isopropyl-1H-pyrazol-4-yl)pyridin-4-yl)((4-(4-methoxy-3-methylphenyl)bicyclo[2.2.2]octan-1-yl)methyl)carbamoyl)cyclohexyl)acetic acid] |
| ≤ 50 nM | COc1ccc(C23CCC(CN(c4cccc(-c5cnn(C(C)C)c5)n4)C(=O)[C@H]4CC[C@H](CC(=O)O)CC4)(CC2)CC3)cc1C (relative stereo) [Compound 4.06, trans-2-(4-((6-(1-Isopropyl-1H-pyrazol-4-yl)pyridin-2-yl)((4-(4-methoxy-3-methylphenyl)bicyclo[2.2.2]octan-1-yl)methyl)carbamoyl)cyclohexyl)acetic acid] |
| 50 to 1000 nM | COc1ccc(C23CCC(CN(C(=O)[C@@H]4CCC[C@@H](CC(=O)O)C4)c4cc(-c5cnn(C(C)C)c5)ccn4)(CC2)CC3)cc1C (relative stereo) [Compound 5.01, trans-2-(3-((4-(1-Isopropyl-1H-pyrazol-4-yl)pyridin-2-yl)((4-(4-methoxy-3-methylphenyl)bicyclo[2.2.2]octan-1-yl)methyl)carbamoyl)cyclohexyl)acetic acid] |
| ≤ 50 nM | COc1ccc(C23CCC(CN(c4cccc(-n5cnc(C6CC6)n5)c4)C(=O)[C@H]4CC[C@H](CC(=O)O)CC4)(CC2)CC3)cc1C [Compound 4.28, trans-2-(4-((3-(3-Cyclopropyl-1H-1,2,4-triazol-1-yl)phenyl)((4-(4-methoxy-3-methylphenyl)bicyclo[2.2.2]octan-1-yl)methyl)carbamoyl)cyclohexyl)acetic acid] |
| 50 to 1000 nM | COc1ccc(C23CCC(CN(c4cc(-c5nnc(C(C)C)o5)ccn4)C(=O)[C@H]4CC[C@H](CC(=O)O)CC4)(CC2)CC3)cc1C [Compound 4.19, trans-2-(4-((4-(5-lsopropyl-1,3,4-oxadiazol-2-yl)pyridin-2-yl)((4-(4-methoxy-3-methylphenyl)bicyclo[2.2.2]octan-1-yl)methyl)carbamoyl)cyclohexyl)acetic acid] |
| 50 to 1000 nM | COc1ccc(C23CCC(CN(c4cc(-n5cnc(C(C)C)n5)ccn4)C(=O)[C@H]4CC[C@H](CC(=O)O)CC4)(CC2)CC3)cc1C [Compound 4.26, trans-2-(4-((4-(3-Isopropyl-1H-1,2,4-triazol-1-yl)pyridin-2-yl)((4-(4-methoxy-3-methylphenyl)bicyclo[2.2.2]octan-1-yl)methyl)carbamoyl)cyclohexyl)acetic acid] |
| ≤ 50 nM | COc1ccc(C23CCC(CN(c4cc(-c5cnn(C(C)C)c5)ccn4)C(=O)[C@H]4CC[C@H](C(=O)O)CC4)(CC2)CC3)cc1C [Compound 4.02, trans-4-((4-(1-Isopropyl-1H-pyrazol-4-yl)pyridin-2-yl)((4-(4-methoxy-3-methylphenyl)bicyclo[2.2.2]octan-1-yl)methyl)carbamoyl)cyclohexanecarboxylic acid] |
